Data: patent US20200384072A1, “THERAPY OF IONIZING RADIATION-INDUCED DISORDERS” (SCK-CEN, priority 2019, published 2020)

Legend:
Assay type in all cases: cell-based, human
TIME cells [1] = experiment: Intracellular ROS, CM-H2DCFDA IncuCyte live cell imaging, TIME cells; conditions: 100 μM TAT-Gap19, 0.1 Gy, 45 min p.i.
Experimental: In order to further assess intracellular ROS production, IncuCyte live cell imaging was used to have fast imaging in large number of replicates over multiple time points. TICAE and TIME cells were seeded in 96-well plate in 16 replicates at a density of 10000 cells/well. Three days later, cells reached 100% confluence. At 30 minutes before irradiation, a fresh MesoEndo Cell Growth Medium without phenol red (Sigma-Aldrich Co. LCC, Diegem, Belgium) supplemented with 10 μmol/L of the CM-H2DCFDA dye (Sigma-Aldrich Co. LCC, Diegem, Belgium) was added to the cells, with or without 100 μM TAT-Gap19 (Genosphere Biotechnologies, Paris, France). Fluorescence signals were measured at 45 min, 2 h and 3 h after irradiation (CM-H2DCFDA dye became saturated due to photoactivaton, and leaked outside the cells after this time) using the IncuCyte ZOOM® system (Essen BioScience, Ann Arbor, Mich., USA), 10× objective and FITC filter. […] Images were analysed making use of the software package provided by the manufacturer; we used a training set of images from different doses to define the image processing procedure. The so called Top-Hat background subtraction method was applied by measuring the radius of the fluorescence object (30 μm), and adjust a threshold of 1.5 (above the local background fluorescent intensity level), as described in IncuCyte™ Background Fluorescence Technical Note. […]

TICAE cells = experiment: Intracellular ROS, CM-H2DCFDA flow cytometry, TICAE cells; conditions: 100 μM TAT-Gap19, 0.1 Gy, 45 min
Experimental: TICAE and TIME cells were seeded in a 6-well plate at a density of 250000 cells/well. Three days later, cells reached 100% confluence. At 30 minutes before X-ray exposure (0.1 and 5 Gy), cells were washed with PBS to remove traces of the original medium. Afterwards, HMS supplemented with 25 mM HEPES (Sigma-Aldrich Co. LCC, Diegem, Belgium) and 10 μmol/L of the CM-H2DCFDA dye (Sigma-Aldrich Co. LCC, Diegem, Belgium) was added to the cells, and 100 μM TAT-Gap19 (Genosphere Biotechnologies, Paris, France) was added to block the Cx43 hemichannels. After irradiation, cells were washed with PBS and a 0.05% trypsin solution supplemented with 0.02% EDTA was used to detach the cells, followed by a 5 minute incubation time (37° C., 5% CO2). After trypsinization, the cells were transferred into a 1.5 mL tube and centrifuged for […] at 200 RCF. The supernatant was discard and the pellet was re-suspended in MSS without Ca2+ and Mg2+(Sigma-Aldrich Co. LCC, Diegem, Belgium). Finally, 1 μg/mL PI was added to each sample to exclude the dead cells. A positive control, 20 μmol/L tert-butyl hydroxyperoxide (tBHP), was added to the cells and incubated for 15 min. Intracellular ROS was assessed by analyzing the fluorescent signals using BD Accuri™ c6 Flow Cytometry (BD Biosciences, San Jose, Calif. USA). At least 10 000 events were measured. […]

TIME cells [2] = experiment: DNA damage, gamma H2AX and TP53BP1 foci, TIME cells; conditions: 100 μM TAT-Gap19, 0.1 and 5 Gy, 1 h p.i.
Experimental: To detect DNA double strand breaks after IR, TICAE and TIME cells were seeded in Nunc™ Lab-Tek™ Chamber Slide (Thermo Fisher Scientific, Asse, Belgium) in 8 replicates, at seeding density of 50 000 cells/well. Two days later, cells reached 100% confluence. At 30 min before IR, a fresh medium was added to the cells with or without 100 μM TAT-Gap19. At 1 h post irradiation, cells were fixed with 2% PFA (Sigma-Aldrich Co. LCC, Diegem, Belgium) and permeabilized with 0.25% Triton X-100 (Sigma-Aldrich Co. LCC, Diegem, Belgium) in PBS. Cells were blocked for 1 h in 1% normal goat serum (Thermo Fisher Scientific, Asse, Belgium) in Tris-NaCl (Perkin Elmer, Brussels, Belgium). Thereafter, staining with 1/300 primary anti-gamma H2AX antibody (Merck-Millipore #05-636) and 1/1000 anti-TP53BP1 antibody (Novus Biologicals #NB100-304) was performed for 1 h at 37° C. After washing 3 times with PBS, secondary Alexa Fluor 488 and 568 antibodies (Life Technologies, Merelbeke, Belgium) were applied for 1 h at 37° C. Finally, the slides were mounted using ProLong Diamond Antifade Mountant with DAPI (Life Technologies, Merelbeke, Belgium), and cells were visualized with an Eclipse Ti automated inverted wide-field epifluorescence microscope (Nikon, Brussels, Belgium) equipped with a 20×Plan Fluor objective (NA 0.6) and an Andor Ixon EMCCD camera, controlled by the MS Elements software. […]

## TAT-Gap19: connexin mimetic peptide, amino-acids 128-136 of the CL of Cx43 (SEQ ID NO: 2), Gap19 linked to TAT sequence; Cx43 hemichannel inhibitor (YGRKKRRQRRRKQIEIKKFK)
TIME cells [1]
  ROS production (IncuCyte): reduced ROS production only significantly for the 0.1 Gy dose
TICAE cells
  intracellular ROS generation (flow cytometry): significantly reduced intracellular ROS generation
TIME cells [2]
  gamma H2AX, TP53BP1 and colocalized foci (radiation-induced DNA damage): not affected
